The target of assay [1] is T1, NHE3 (Homo sapiens, UniProt P48764).
T1 construct: expressed in transfected cells
T1 sequence (P48764 26-834): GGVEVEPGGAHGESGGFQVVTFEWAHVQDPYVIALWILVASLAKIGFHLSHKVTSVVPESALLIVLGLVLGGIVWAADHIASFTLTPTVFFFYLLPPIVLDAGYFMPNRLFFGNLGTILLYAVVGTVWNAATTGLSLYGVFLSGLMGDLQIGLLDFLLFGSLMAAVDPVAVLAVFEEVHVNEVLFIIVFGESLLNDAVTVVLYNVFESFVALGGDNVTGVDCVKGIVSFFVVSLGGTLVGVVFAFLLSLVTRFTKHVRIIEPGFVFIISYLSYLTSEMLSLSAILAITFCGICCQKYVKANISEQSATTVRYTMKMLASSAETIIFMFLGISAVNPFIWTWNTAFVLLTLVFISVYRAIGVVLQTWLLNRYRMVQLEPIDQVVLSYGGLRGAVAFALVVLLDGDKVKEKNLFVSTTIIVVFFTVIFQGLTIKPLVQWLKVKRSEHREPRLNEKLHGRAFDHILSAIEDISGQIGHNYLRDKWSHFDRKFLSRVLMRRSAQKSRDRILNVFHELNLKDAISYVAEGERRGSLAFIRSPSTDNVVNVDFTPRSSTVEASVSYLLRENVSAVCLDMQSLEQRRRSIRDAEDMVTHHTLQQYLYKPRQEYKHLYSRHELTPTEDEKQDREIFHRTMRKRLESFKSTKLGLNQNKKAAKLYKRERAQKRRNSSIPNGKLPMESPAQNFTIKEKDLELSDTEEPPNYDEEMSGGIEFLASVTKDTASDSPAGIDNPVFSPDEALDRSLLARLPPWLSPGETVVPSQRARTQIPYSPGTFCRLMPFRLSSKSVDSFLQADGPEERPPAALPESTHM
T1 sequence (Q99653 2-195 partner limits assumed): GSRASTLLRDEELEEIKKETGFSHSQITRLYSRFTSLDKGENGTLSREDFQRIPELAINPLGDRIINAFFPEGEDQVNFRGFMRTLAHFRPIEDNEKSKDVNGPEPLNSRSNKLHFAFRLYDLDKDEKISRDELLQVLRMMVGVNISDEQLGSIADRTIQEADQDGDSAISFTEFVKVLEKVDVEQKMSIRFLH
The assay is described as follows: Cell-based assay of NHE-3 activity (persistent inhibition), human. Particulars: human Persistence, 60 min incubation then washout. An outline of the steps: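 Persistent inhibition: compound (0-30 μM, 60 min, RT, NaCl-HEPES pH 7.4) removed before assay. Human NHE3/NHERF2 PS120 cells were then BCECF-loaded during NH4Cl pulse (30 min, 37 °C), acidified in Na+-free buffer, and Na+ added 10 min after washout; antiport measured as initial fluorescence-ratio change per minute.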

Assay [2] addresses T1, NHE3. The assay is described as follows: Cell-based assay of NHE-3 activity (pre-incubation inhibition), human. The conditions noted are these: human Preincubation; for IC50 / pIC50: 0-30 μM test compound. In short, it runs like this:
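Activity read as initial rate of BCECF fluorescence ratio change per minute (ex 439/505, em 538 nm) following NH4Cl prepulse acid loading. Compound (0–30 μM) present during 10 min Na+-free acidification at room temperature; cells were PS120 fibroblasts stably co-expressing human NHE3 and NHERF2.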

As usually defined, the IC50 is the concentration that inhibits the measured activity by half. Low values mean higher potency, high ones lower potency. Regarding `N[C@@H]1CCCN([C@H]2Cc3c(Cl)cc(Cl)cc3[C@@H]2Oc2ccc(S(=O)(=O)NCCCCCCCCNC(=O)NCCCCNC(=O)NCCCCCCCCNS(=O)(=O)c3ccc(O[C@H]4c5cc(Cl)cc(Cl)c5C[C@@H]4N4CCC[C@@H](N)C4)cc3)cc2)C1` [Example 62, 3-[8-[(4-[[(1S,2S)-2-[(3R)-3-Aminopiperidin-1-yl]-4,6-dichloro-2,3-dihydro-1H-inden-1-yl]oxy]benzene)sulfonamido]octyl]-1-[4-[([8-[(4-[[(1S,2S)-2-[(3R)-3-aminopiperidin-1-yl]-4,6-dichloro-2,3-dihydro-1H-inden-1-yl]oxy]benzene)sulfonamido]octyl]carbamoyl)amino]butyl]urea; bis(trifluoroacetic acid)], the “% inhibition” value at NHE3 [1] is on record as “A (NHE3 < 40%)”; at NHE3 [2] it was “C (>70%)”. Besides, the IC50 against NHE3 [1] is more than 1000 nM; on NHE3 [2], less than 100 nM.

Turning to `Cc1cc(S(=O)(=O)NCCCCCCCCNC(=O)NCCCCNC(=O)NCCCCCCCCNS(=O)(=O)c2ccc(O[C@H]3c4cc(Cl)cc(Cl)c4C[C@@H]3N3CCC[C@@H](N)C3)c(C)c2)ccc1O[C@H]1c2cc(Cl)cc(Cl)c2C[C@@H]1N1CCC[C@@H](N)C1` [Example 63, 3-[8-[(4-[[(1S,2S)-2-[(3R)-3-Aminopiperidin-1-yl]-4,6-dichloro-2,3-dihydro-1H-inden-1-yl]oxy]-3-methylbenzene)sulfonamido]octyl]-1-[4-[([8-[(4-[[(1S,2S)-2-[(3R)-3-aminopiperidin-1-yl]-4,6-dichloro-2,3-dihydro-1H-inden-1-yl]oxy]-3-methylbenzene)sulfonamide]octyl]carbamoyl)amino]butyl]urea], on NHE3 [1], the “% inhibition” value is given as “B (40-70%)” and the IC50 is 100 to 1000 nM. Moreover, on NHE3 [2], the “% inhibition” value is listed as “B (40-70%)” and the pIC50 result is “C (NHE3 pIC50 > 7)”.

`CN(C)[C@H]1Cc2c(Cl)cc(Cl)cc2[C@@H]1Oc1ccc(S(=O)(=O)NCCCCCCCCNC(=O)NCCCCNC(=O)NCCCCCCCCNS(=O)(=O)c2ccc(O[C@H]3c4cc(Cl)cc(Cl)c4C[C@@H]3N(C)C)cc2)cc1` [Example 64, 3-[8-[(4-[[(1S,2S)-4,6-Dichloro-2-(diamethylamino)-2,3-dihydro-1H-inden-1-yl]oxy]benzene)sulfonamido]octyl]-1-[4-[([8-[(4-[[(1S,2S)-4,6-dichloro-2-(diamethylamino)-2,3-dihydro-1H-inden-1-yl]oxy]benzene)sulfonamido]octyl]carbamoyl)amino]butyl]urea; bis(trifluoroacetic acid)]: the “% inhibition” value on NHE3 [1] and on NHE3 [2] was “A (NHE3 < 40%)” throughout.

`Cc1cc(S(=O)(=O)NCCCCCCCCNC(=O)NCCCCNC(=O)NCCCCCCCCNS(=O)(=O)c2ccc(O[C@H]3c4cc(Cl)cc(Cl)c4C[C@@H]3N(C)C)c(C)c2)ccc1O[C@H]1c2cc(Cl)cc(Cl)c2C[C@@H]1N(C)C` [Example 65, 3-[8-[(4-[[(1S,2S)-4,6-Dichloro-2-(dimethylamino)-2,3-dihydro-1H-inden-1-yl]oxy]-3-methylbenzene)sulfonamido]octyl]-1-[4-[([8-[(4-[[(1S,2S)-4,6-dichloro-2-(dimethylamino)-2,3-dihydro-1H-inden-1-yl]oxy]-3-methylbenzene)sulfonamido]octyl]carbamoyl)amino]butyl]urea]: the “% inhibition” value on NHE3 [1] and on NHE3 [2] was “A (NHE3 < 40%)” in each case.

`C[C@@H]1CCCCN1[C@H]1Cc2c(Cl)cc(Cl)cc2[C@@H]1Oc1ccc(S(=O)(=O)NCCOCCOCCNC(=O)NCCCCNC(=O)NCCOCCOCCNS(=O)(=O)c2ccc(O[C@H]3c4cc(Cl)cc(Cl)c4C[C@@H]3N3CCCC[C@H]3C)cc2)cc1` [Example 66, 3-[2-(2-[2-[(4-[[(1S,2S)-4,6-Dichloro-2-[(2R)-2-methylpiperidin-1-yl]-2,3-dihydro-1H-inden-1-yl]oxy]benzene)sulfonamido]ethoxy]ethoxy)ethyl]-1-[4-([[2-(2-[2-[(4-[[(1S,2S)-4,6-dichloro-2-[(2R)-2-methylpiperidin-1-yl]-2,3-dihydro-1H-inden-1-yl]oxy]benzene)sulfonamido]ethoxy]ethoxy)ethyl]carbamoyl]amino)butyl]urea]: on NHE3 [1], the “% inhibition” value is given as “A (NHE3 < 40%)” and the pIC50 entry is “A (NHE3 pIC50 < 6)”. Also, on NHE3 [2], the “% inhibition” value was “A (NHE3 < 40%)” and the pIC50 entry was “A (NHE3 pIC50 < 6)”.

Turning to `C[C@H]1CCCCN1[C@H]1Cc2c(Cl)cc(Cl)cc2[C@@H]1Oc1ccc(S(=O)(=O)NCCOCCOCCNC(=O)NCCCCNC(=O)NCCOCCOCCNS(=O)(=O)c2ccc(O[C@H]3c4cc(Cl)cc(Cl)c4C[C@@H]3N3CCCC[C@@H]3C)cc2)cc1` [Example 67, 3-[2-(2-[2-[(4-[[(1S,2S)-4,6-Dichloro-2-[(2S)-2-methylpiperidin-1-yl]-2,3-dihydro-1H-inden-1-yl]oxy]benzene)sulfonamido]ethoxy]ethoxy)ethyl]-1-[4-([[2-(2-[2-[(4-[[(1S,2S)-4,6-dichloro-2-[(2S)-2-methylpiperidin-1-yl]-2,3-dihydro-1H-inden-1-yl]oxy]benzene)sulfonamide]ethoxy]ethoxy)ethyl]carbamoyl]amino)butyl]urea], at NHE3 [1], the “% inhibition” value is recorded as “B (40-70%)” and the IC50 is 100 to 1000 nM. On NHE3 [2], the “% inhibition” value is “C (>70%)” and the IC50 was 100 to 1000 nM.

As to `O=C(NCCCCNC(=O)NCCOCCOCCNS(=O)(=O)c1ccc(O[C@H]2c3cc(Cl)cc(Cl)c3C[C@@H]2N2CC3CCC2C3)cc1)NCCOCCOCCNS(=O)(=O)c1ccc(O[C@H]2c3cc(Cl)cc(Cl)c3C[C@@H]2N2CC3CCC2C3)cc1` [Example 68], on NHE3 [1], the “% inhibition” value is “C (>70%)” and the pIC50 entry is listed as “C (NHE3 pIC50 > 7)”. Besides, at NHE3 [2], the “% inhibition” value is on record as “C (>70%)” and the pIC50 result is recorded as “C (NHE3 pIC50 > 7)”.

Take `O=C(NCCCCNC(=O)NCCOCCOCCNS(=O)(=O)c1ccc(O[C@H]2c3cc(Cl)cc(Cl)c3C[C@@H]2N2CC3CCC2CC3)cc1)NCCOCCOCCNS(=O)(=O)c1ccc(O[C@H]2c3cc(Cl)cc(Cl)c3C[C@@H]2N2CC3CCC2CC3)cc1` [Example 69, 1-[2-(2-[2-[(4-[[(1S,2S)-2-[2-Azabicyclo[2.2.2]octan-2-yl]-4,6-dichloro-2,3-dihydro-1H-inden-1-yl]oxy]benzene)sulfonamido]ethoxy]ethoxy)ethyl]-3-[4-([[2-(2-[2-[(4-[[(1S,2S)-2-[2-azabicyclo[2.2.2]octan-2-yl]-4,6-dichloro-2,3-dihydro-1H-inden-1-yl]oxy]benzene)sulfonamido]ethoxy]ethoxy)ethyl]carbamoyl]amino)butyl]urea]: at NHE3 [1], the “% inhibition” value is listed as “C (>70%)” and the IC50 is 100 to 1000 nM. Moreover, at NHE3 [2], the “% inhibition” value was “C (>70%)” and the pIC50 entry is listed as “C (NHE3 pIC50 > 7)”.

As for `O=C(NCCCCNC(=O)NCCOCCOCCNS(=O)(=O)c1ccc(O[C@H]2c3cc(Cl)cc(Cl)c3C[C@@H]2N2C3CCCC2CC3)cc1)NCCOCCOCCNS(=O)(=O)c1ccc(O[C@H]2c3cc(Cl)cc(Cl)c3C[C@@H]2N2C3CCCC2CC3)cc1` [Example 70, 3-[2-(2-[2-[(4-[[(1S,2S)-2-[8-azabicyclo[3.2.1]octan-8-yl]-4,6-dichloro-2,3-dihydro-1H-inden-1-yl]oxy]benzene)sulfonamido]ethoxy]ethoxy)ethyl]-1-[4-([[2-(2-[2-[(4-[[(1S,2S)-2-[8-azabicyclo[3.2.1]octan-8-yl]-4,6-dichloro-2,3-dihydro-1H-inden-1-yl]oxy]benzene)sulfonamido]ethoxy]ethoxy)ethyl]carbamoyl]amino)butyl]urea], the “% inhibition” value on NHE3 [1] and at NHE3 [2] was “C (>70%)” in each case.

The record behind these values is patent US11242337B2, “Compounds useful for treating gastrointestinal tract disorders” (Ardelyx, Inc., priority 2017, dated 2022).
